Article PMC11240139, “Exploring the antitumor potential of novel quinoline derivatives via tubulin polymerization inhibition in breast cancer; design, synthesis and molecular docking” (RSC Advances, 2024)

Assays:
CCRF-CEM (leukemia) = assay: NCI-60 SRB cytotoxicity screen; assay type: cell-based; conditions: Homo sapiens, single dose 10 μM, read-out: growth inhibition (GI%)
RPMI-8226 (leukemia) = assay: NCI-60 SRB cytotoxicity screen; assay type: cell-based; conditions: Homo sapiens; RPMI-8226, single dose 10 μM; read-out: growth inhibition (GI%)
SR (leukemia) = assay: NCI-60 SRB cytotoxicity screen; assay type: cell-based; conditions: single dose 10 μM; for inhibition at 10 µM: read-out: growth inhibition (GI%)
[1] = tested on: HOP-62 (non-small cell lung cancer); assay: NCI-60 SRB cytotoxicity screen; assay type: cell-based; conditions: Homo sapiens; HOP-62, single dose 10 μM; read-out: growth inhibition (GI%)
[2] = tested on: HOP-92 (non-small cell lung cancer); assay: NCI-60 SRB cytotoxicity screen; assay type: cell-based; conditions: Homo sapiens; HOP-92, single dose 10 μM; read-out: growth inhibition (GI%)
[3] = tested on: NCI-H226 (non-small cell lung cancer); assay: NCI-60 SRB cytotoxicity screen; assay type: cell-based; conditions: NCI-H226, single dose 10 μM; for inhibition at 10 µM: Homo sapiens, read-out: growth inhibition (GI%)
[4] = tested on: NCI-H460 (non-small cell lung cancer); assay: NCI-60 SRB cytotoxicity screen; assay type: cell-based; conditions: Homo sapiens; NCI-H460, single dose 10 μM; read-out: growth inhibition (GI%)
HT29 (colon cancer) = assay: NCI-60 SRB cytotoxicity screen; assay type: cell-based; conditions: Homo sapiens, HT-29; HT29, single dose 10 μM; read-out: growth inhibition (GI%)
KM12 (colon cancer) = assay: NCI-60 SRB cytotoxicity screen; assay type: cell-based; conditions: Homo sapiens; KM12, single dose 10 μM; read-out: growth inhibition (GI%)
SF-295 (CNS cancer) = assay: NCI-60 SRB cytotoxicity screen; assay type: cell-based; conditions: Homo sapiens; SF-295, single dose 10 μM; read-out: growth inhibition (GI%)
LOX IMVI (melanoma) = assay: NCI-60 SRB cytotoxicity screen; assay type: cell-based; conditions: Homo sapiens, single dose 10 μM, read-out: growth inhibition (GI%)
M14 (melanoma) = assay: NCI-60 SRB cytotoxicity screen; assay type: cell-based; conditions: Homo sapiens; M14, single dose 10 μM; read-out: growth inhibition (GI%)
MDA-MB-435 (melanoma) = assay: NCI-60 SRB cytotoxicity screen; assay type: cell-based; conditions: Homo sapiens, MDA-MB-435, read-out: growth inhibition (GI%)
SK-MEL-5 (melanoma) = assay: NCI-60 SRB cytotoxicity screen; assay type: cell-based; conditions: Homo sapiens; SK-MEL-5, single dose 10 μM; read-out: growth inhibition (GI%)
UACC-257 (melanoma) = assay: NCI-60 SRB cytotoxicity screen; assay type: cell-based; conditions: Homo sapiens; UACC-257, single dose 10 μM; read-out: growth inhibition (GI%)
IGROV1 (ovarian cancer) = assay: NCI-60 SRB cytotoxicity screen; assay type: cell-based; conditions: Homo sapiens, IGROV-1; IGROV1, single dose 10 μM; read-out: growth inhibition (GI%)
OVCAR-4 (ovarian cancer) = assay: NCI-60 SRB cytotoxicity screen; assay type: cell-based; conditions: Homo sapiens; OVCAR-4, single dose 10 μM; read-out: growth inhibition (GI%)
OVCAR-8 (ovarian cancer) = assay: NCI-60 SRB cytotoxicity screen; assay type: cell-based; conditions: Homo sapiens; OVCAR-8, single dose 10 μM; read-out: growth inhibition (GI%)
A498 (renal cancer) = assay: NCI-60 SRB cytotoxicity screen; assay type: cell-based; conditions: Homo sapiens; A498, single dose 10 μM; read-out: growth inhibition (GI%)
SN12C (renal cancer) = assay: NCI-60 SRB cytotoxicity screen; assay type: cell-based; conditions: Homo sapiens, single dose 10 μM, read-out: growth inhibition (GI%)
UO-31 (renal cancer) = assay: NCI-60 SRB cytotoxicity screen; assay type: cell-based; conditions: Homo sapiens; UO-31, single dose 10 μM; read-out: growth inhibition (GI%)
DU-145 (prostate cancer) = assay: NCI-60 SRB cytotoxicity screen; assay type: cell-based; conditions: Homo sapiens; DU-145, single dose 10 μM; read-out: growth inhibition (GI%)
[5] = tested on: MDA-MB-231/ATCC (breast cancer); assay: NCI-60 SRB cytotoxicity screen; assay type: cell-based; conditions: Homo sapiens, MDA-MB-231, read-out: growth inhibition (GI%)
HS 578T (breast cancer) = assay: NCI-60 SRB cytotoxicity screen; assay type: cell-based; conditions: Homo sapiens, single dose 10 μM, read-out: growth inhibition (GI%)
T-47D (breast cancer) = assay: NCI-60 SRB cytotoxicity screen; assay type: cell-based; conditions: Homo sapiens, T47D, single dose 10 μM, read-out: growth inhibition (GI%)
[6] = tested on: MDA-MB-468 (breast cancer); assay: NCI-60 SRB cytotoxicity screen; assay type: cell-based; conditions: Homo sapiens; MDA-MB-468, single dose 10 μM; read-out: growth inhibition (GI%)
Procedure: The cytotoxic activity of the synthesized quinoline derivatives was determined by the national cancer institute (NCI, Bethesda, Maryland, USA) against 60 different cancer cell lines at a single high dose (10^−5 M) in the full NCI 60 cell panel using the sulforhodamine B assay for cell viability evaluation. In summary, 5 × 10^3 cells were in 96-well plate and incubated in complete media for 24 h. Cells were treated with 100 μL of media containing each newly synthesized compound. After drug exposure, cells were fixed by replacing media with 150 μL of 10% TCA and incubated at 4 °C for 1 h. The TCA solution was removed, and the cells were washed 5 times with distilled water. Aliquots of 70 μL SRB solution (0.4% w/v) were added and incubated in a dark place at room temperature for 10 min. The plates were washed 3 times with 1% acetic acid and allowed to air-dry overnight. Then, 150 μL of TRIS (10 mM) was added to dissolve protein-bound SRB stain. The absorbance was measured at 540 nm.% Cytotoxicity = [1 − (AVx/AVNC)] × 100where AVx denotes the average absorbance of the sample well and AVNC denotes the average absorbance of the negative control.
The methodology of the NCI anticancer screening has been described in details at (http://www.dtp.nci.nih.gov). The anticancer assay was performed in full NCI 60 cell lines derived from nine tumor subpanels, including leukemia, lung, colon, CNS, melanoma, ovarian, renal, prostate, and breast cancer cell lines.
The cell lines were first cultured for 48 h, after being exposed to a single dosage of the compound. Using the protein-binding dye sulforhodamine B dye, cell proliferation and viability were evaluated (SRB assay). The results were presented for each chemical as GI%. Compound that met NCI criteria for substantial activity were further evaluated using a five-dose experiment. The NCI60 cell lines were treated with the chemicals in this assay at five different concentration levels (0.01, 0.1, 1, 10, and 100 μM).

Row | SMILES | inhibition at 10 µM (CCRF-CEM (leukemia)) [%] | inhibition at 10 µM (RPMI-8226 (leukemia)) [%] | inhibition at 10 µM (SR (leukemia)) [%] | inhibition at 10 µM [1] [%] | inhibition at 10 µM [2] [%] | inhibition at 10 µM [3] [%] | inhibition at 10 µM [4] [%] | inhibition at 10 µM (HT29 (colon cancer)) [%] | inhibition at 10 µM (KM12 (colon cancer)) [%] | inhibition at 10 µM (SF-295 (CNS cancer)) [%] | inhibition at 10 µM (LOX IMVI (melanoma)) [%] | inhibition at 10 µM (M14 (melanoma)) [%] | inhibition at 10 µM (MDA-MB-435 (melanoma)) [%] | inhibition at 10 µM (SK-MEL-5 (melanoma)) [%] | inhibition at 10 µM (UACC-257 (melanoma)) [%] | inhibition at 10 µM (IGROV1 (ovarian cancer)) [%] | inhibition at 10 µM (OVCAR-4 (ovarian cancer)) [%] | inhibition at 10 µM (OVCAR-8 (ovarian cancer)) [%] | inhibition at 10 µM (A498 (renal cancer)) [%] | inhibition at 10 µM (SN12C (renal cancer)) [%] | other results
1 | CCc1cccc2cc(-c3cc(-c4ccc(OC)c(OC)c4)[nH]c(=O)c3C#N)c(Cl)nc12 [Compound 4b, 4-(2-Chloro-8-ethylquinolin-3-yl)-6-(3,4-dimethoxyphenyl)-2-oxo-1,2-dihydropyridine-3-carbonitrile] | < 10 | < 10 | < 10 | < 10 | 11.3 | < 10 | < 10 | < 10 | < 10 | < 10 | < 10 | < 10 | < 10 | < 10 | < 10 | < 10 | 14 | < 10 | < 10 | < 10 | inhibition at 10 µM (UO-31 (renal cancer)): < 10%; inhibition at 10 µM (DU-145 (prostate cancer)): < 10%; inhibition at 10 µM [5]: < 10%; inhibition at 10 µM (HS 578T (breast cancer)): 10.3%; inhibition at 10 µM (T-47D (breast cancer)): 16.6%; inhibition at 10 µM [6]: < 10%; melting point: 280 to 282 °C
2 | CCc1cccc2cc(C=CC(=O)c3ccc(F)cc3)c(Cl)nc12 [Compound 3d, 3-(2-Chloro-8-ethylquinolin-3-yl)-1-(4-fluorophenyl)prop-2-en-1-one] | < 10 | < 10 | < 10 | < 10 | < 10 | < 10 | < 10 | < 10 | < 10 | < 10 | < 10 | < 10 | < 10 | < 10 | < 10 | < 10 | < 10 | < 10 | < 10 | < 10 | inhibition at 10 µM (UO-31 (renal cancer)): < 10%; inhibition at 10 µM (DU-145 (prostate cancer)): < 10%; inhibition at 10 µM [5]: < 10%; inhibition at 10 µM (HS 578T (breast cancer)): < 10%; inhibition at 10 µM (T-47D (breast cancer)): < 10%; inhibition at 10 µM [6]: < 10%; melting point: 215 to 217 °C
3 | CCc1cccc2cc(-c3cc(-c4ccc(OC)cc4)[nH]c(=O)c3C#N)c(Cl)nc12 [Compound 4a, 4-(2-Chloro-8-ethylquinolin-3-yl)-6-(4-methoxyphenyl)-2-oxo-1,2-dihydropyridine-3-carbonitrile] | < 10 | < 10 | < 10 | < 10 | 29.8 | 15.4 | < 10 | < 10 | < 10 | 16.7 | < 10 | < 10 | < 10 | 13.9 | < 10 | < 10 | 21.9 | < 10 | < 10 | < 10 | inhibition at 10 µM (UO-31 (renal cancer)): < 10%; inhibition at 10 µM (DU-145 (prostate cancer)): < 10%; inhibition at 10 µM [5]: 10%; inhibition at 10 µM (HS 578T (breast cancer)): 14.9%; inhibition at 10 µM (T-47D (breast cancer)): 17.1%; inhibition at 10 µM [6]: 14%; melting point: 270 to 272 °C
4 | CCc1cccc2cc(C=CC(=O)c3ccc(OC)c(OC)c3)c(Cl)nc12 [Compound 3b, 3-(2-Chloro-8-ethylquinolin-3-yl)-1-(3,4-dimethoxyphenyl)prop-2-en-1-one] | 65 | 56.2 | 80.1 | < 10 | 27.4 | > 100 | 27.7 | 26.9 | 23.5 | 21.8 | 43.4 | < 10 | 17.1 | 23.2 | < 10 | < 10 | 42.3 | 57.8 | < 10 | 23.7 | growth inhibition (GI%) (SR (leukemia)): 80.06%; growth inhibition (GI%) [3]: lethal effect; inhibition at 10 µM (UO-31 (renal cancer)): 41.8%; inhibition at 10 µM (DU-145 (prostate cancer)): 15.8%; inhibition at 10 µM [5]: 29.3%; inhibition at 10 µM (HS 578T (breast cancer)): < 10%; inhibition at 10 µM (T-47D (breast cancer)): 57.9%; inhibition at 10 µM [6]: 39.8%; melting point: 135 to 137 °C
5 | CCc1cccc2cc(C=CC(=O)c3ccc(OC)cc3)c(Cl)nc12 [Compound 3a, 3-(2-Chloro-8-ethylquinolin-3-yl)-1-(4-methoxyphenyl)prop-2-en-1-one] | 26.9 | 22.1 | 38.4 | < 10 | 27.3 | 79.9 | < 10 | < 10 | < 10 | < 10 | 11.3 | < 10 | < 10 | < 10 | < 10 | < 10 | 13.5 | < 10 | < 10 | < 10 | inhibition at 10 µM (UO-31 (renal cancer)): < 10%; inhibition at 10 µM (DU-145 (prostate cancer)): < 10%; inhibition at 10 µM [5]: < 10%; inhibition at 10 µM (HS 578T (breast cancer)): < 10%; inhibition at 10 µM (T-47D (breast cancer)): 44%; inhibition at 10 µM [6]: < 10%; melting point: 138 to 140 °C
